{"source": "patent US20130004516A1", "about": "“DRUG FOR INFLAMMATORY BOWEL DISEASE” (DAINIPPON SUMITOMO PHARMA CO., LTD., priority 2010, published 2013)", "test_system": "mouse model of relapse-remitting type ulcerative colitis", "assay": "Ulcer score of the large intestine in the mouse model of colitis induced by 1% DSS (Example 1)", "type": "in vivo", "conditions": "day of completion; score 1 = ulcer of 1 mm^2 or larger; antibodies 0.5 mg/mouse intraperitoneally once; sulfasalazine 200 mg/kg orally once a day", "description": "An aqueous solution of dextran sulfate (DSS) was administered to a mouse to induce relapse-remitting type ulcerative colitis. To this mouse model of relapse-remitting type ulcerative colitis, an anti-CD81 antibody was administered once and a relapse (recurrence)-inhibitory effect of single-dose administration of an anti-CD81 antibody on ulcerative colitis was examined by comparing with single-dose administration of an anti-TNF-α antibody and multiple-dose administration of sulfasalazine, both of which are the existing therapeutic agents.\nDextran sulfate (the product of TdB consultancy AB, an average molecular weight of 47,000) was dissolved in drinking water to prepare a 1% aqueous solution. […]\nFour-week-old mice (BALB/cAnNCrj, male, the product of Charles River Laboratories Japan, Inc.) were purchased, and the mice in which no abnormality was found after six days of quarantine rearing were measured for body weight and then divided into six groups, where one group contained 10 mice. […]\nOn the day of completion of the experiment, 0.1 ml of a 2.5% brilliant blue 6B solution was administered to all groups of mice via tail vein. […] Subsequently, the large intestine was thoroughly washed with an ethanol solution and the size of ulcer was measured. […]", "data": [{"smiles": "O=C(O)c1cc(/N=N/c2ccc(S(=O)(=O)Nc3ccccn3)cc2)ccc1O", "note": "[Sulfasalazine, sulfasalazine]", "values": [{"measurement": "Ulcer score", "value": 0.1}]}]}
